Source: patent publication US20250144128A1, “CANCER TREATMENT” (Nucana plc, priority 2022, published 2025)

Assays:
[1] = system: adenosine deaminase (ADA); conditions: inactive metabolite 3′-deoxyinosine; Tsai et al. 2010; cited from earlier work
[2] = system: A375 melanoma or A549 lung cancer cell lines; test: mRNA decrease in the cell line studies (RT-qPCR), cell line not specified; format: cell-based; conditions: NUC-7738 10 uM vs DMSO
Procedure: (§1) A375 melanoma cell lines and A549 lung cancer cell lines were treated with solvent-control DMSO or NUC-7738 (10 uM) for 72 hours, after which media supernatants were collected for either soluble PD-L1 analysis or EV isolation. In addition, adherent cells were collected for RNA and protein isolation.
To determine RNA expression of soluble transcript, cells were lysed and RNA isolated using the RNAeasy Kit (Qiagen, Cat #74136). This was then followed by RNA reverse transcription into cDNA using QuantiNova Reverse Transcription Kit (Qiagen, Cat #205413). Primers for each gene were designed using PrimerQuest™ (Integrated DNA Technologies) and ordered at 100 uM concentrations from IDT. The soluble PD-L1 transcript primer was designed to create an amplicon of about 100 bp size crossing the exon 4 and intron 4 junction.
RT-qPCR was carried out using the qPCRBIO SyGreen MasterMix kit (PCRBiossystems Cat #PB20.14-50) and the Rotor qene Q qPCR machine (Qiagen). Ct values were analysed using the Rotor qene Q Software. Fold change were calculated using the AACt values.

[3] = system: sPD-L1, A375 melanoma or A549 lung cancer cell lines; test: sPD-L1 in media supernatant in the cell line studies (sandwich ELISA), cell line not specified; format: cell-based; conditions: NUC-7738 10 uM vs DMSO
Procedure: For sPDL1 analysis, a similar process was undertaken. Cells were grown in Corning® 100 mm TC-treated Culture Dish with DMEM, high glucose, GlutaMAX™ Supplement (ThermoFisher Cat #10566016) supplemented with 10% FBS and 1% Penicillin-Streptomycin (ThermoFisher Cat #15070063), with approximately 2×10^6 cells.
as §1
Patient plasma samples were centrifuged at 3000×g for 15 minutes to remove cellular debris. […]
For quantitative measurement of soluble PD-L1 in patient and in-vitro samples Quantikine® ELISA Human/Cynomolgus Monkey PD-L1/B7-H1 Immunoassay (R&D Systems Cat. #DB7H10) was used as per manufacturers recommendation. […]
In brief, the protocol included the preparation of the standard curve from the Human/Cynomolgus Monkey PD-L1/B7-H1 protein standard ranging from […]. […] The wells were read using a microplate reader set to 450 nm and 540 nm for wavelength correction to determine the optical density.
Analysis of the results included subtracting the 540 nm readings from 450 nm reading and subtracting blank, diluent only, sample readings. […]

[4] = system: ExoPD-L1, A375 melanoma or A549 lung cancer cell lines; test: ExoPD-L1 protein in exosomes from the cell line studies; format: cell-based; conditions: NUC-7738 10 uM vs DMSO
Procedure: For Extracellular Vesicle (EV, exosome) preparation, cells were cultured in T175 Nunc™ EasYFlask™ Cell Culture Flasks (ThermoFisher Cat #159910), approximately 50×10^6 cells. Cells were grown in DMEM, high glucose, GlutaMAX™ Supplement (ThermoFisher Cat #10566016) supplemented with 5% exosome free FBS and 1% Penicillin-Streptomycin (ThermoFisher Cat #15070063).
as §1
Isolation of exosomes from in-vitro samples involved growing cells in 5 separate T175 Nunc™ EasYFlask™ Cell Culture Flasks (ThermoFisher Cat #159910) which approximated to 50×10^6 cells. Cells were grown in DMEM, high glucose, GlutaMAX™ Supplement (ThermoFisher Cat #10566016) in addition, this was supplemented with exosome free FBS. […]
Analysis of PD-L1 expression in exosomes isolated from plasma samples was carried out using automated western blotting JESS system (BioTechne, ProteinSimples). […] The expression was determined by the area under the curve using Compass Software v 6.1 (ProteinSimple).

exosomal PD-L1 [5] = test: exosomal PD-L1 in plasma of patients treated with NUC-7738 (capillary-based immune probing, PD-L1/CD81); format: in vivo, human; conditions: plasma exosomes; for PD-L1/CD81 values: 24 h Post C1
Procedure: Patients were treated with NUC-7738 on days 1 and 8 of a 14-day cycle. Patient plasma samples were collected pre-dose, 24 hr after NUC-7738 dosage and the 24 hours post Cycle 2 (that is the second occasion at which patients received treatment).
Patient plasma samples were centrifuged at 3000×g for 15 minutes to remove cellular debris. Then, the supernatant was aliquoted in 250 μL measures and stored in−80° C. freezers. For exosomal isolation ExoQuick® ULTRA EV Isolation Kit for Serum and Plasma (System Biosciences Cat #EQULTRA-20A-1) according to manufacturer's protocol. In brief, 250 μL of plasma samples free of cellular debris was used and 67 μL ExoQuick Solution was added, followed by a 30 minute incubation period at 4° C. After that, the plasma sample and ExoQuick Solution mixture were centrifuged at 3000×g for 10 minutes. Then, carefully without disturbing the pellet, all of the supernatant was aspirated off, making sure no residual traces remained. Next, the pellet was resuspended in Buffer B provided, followed by the addition of Buffer A. The samples was homogenised in the buffer by carefully pipetting up and down until no clumps of the pellet were seen. The resin purification columns were conditioned by removing the storage buffer and washing it with Buffer B. The samples were added to the conditioned purification column and centrifuged at 1000×g for 30 seconds. The eluted samples were quantified for protein concentration using Qubit™ Protein and Protein Broad Range (BR) Assay Kits (Thermofisher Cat #A50668). Samples were then aliquoted according to the required amounts for the downstream applications and stored −80° C.
Analysis of PD-L1 expression in exosomes isolated from plasma samples was carried out using automated western blotting JESS system (BioTechne, ProteinSimples). The 12-230 kDa Separation Module of 25 capillaries kit (ProteinSimple, Cat #SM-W004) was used per manufacture protocol. Briefly, samples were prepared at the appropriate concentration using the kit master-mix and sample dilution buffer containing DT, samples were then denatured for 5 minutes at 95° C. All samples, primary antibodies and secondary antibodies were loaded into the plate provided. Anti-CD81 antibody [M38] (Abcam, Cat #ab79559) diluted at 1:100 and PD-L1 (E1L3N®) XP® Rabbit mAb (Cell Signalling, Cat #13684) diluted at 1:50 were used. Secondary antibodies used were from the anti-mouse chemiluminescence (ProteinSimple, Cat #DM002) and anti-rabbit near-infrared (NIR) (ProteinSimple, Cat #DM007) detection module, they were used at recommended dilution. The prepared plates and capillaries were then loaded onto the JESS, and sample run at the defaults settings. The expression was determined by the area under the curve using Compass Software v 6.1 (ProteinSimple).

exosomal PD-L1 [6] = test: as above; format: in vivo, human; conditions: for PD-L1/CD81 values: plasma exosomes, Pre C2 (15 days after initial cycle)
[7] = patient 001-002, Pre C1 (untreated) 0.044
[8] = patient 001-019, Pre C1 (untreated) 0.039
[9] = patient 002-002, Pre C1 (untreated) 0.035
[10] = patient 003-008, Pre C1 (untreated) 0.045

| Compound | metabolism after administration, in vivo [1] | decrease of mRNA [2] | time dependent decrease of sPD-L1 expression in the media supernatant [3] | reduction of ExoPD-L1 protein [4] [%] | PD-L1/CD81 values (exosomal PD-L1 [5]; [7]) | time within which the reduction of the PD-L1/CD81 ratio is seen (exosomal PD-L1 [5]; patient 001-019) [h] | PD-L1/CD81 values (exosomal PD-L1 [5]; [8]) | PD-L1/CD81 values (exosomal PD-L1 [5]; [9]) | PD-L1/CD81 values (exosomal PD-L1 [5]; [10]) | PD-L1/CD81 values (exosomal PD-L1 [6]; [7]) | PD-L1/CD81 values (exosomal PD-L1 [6]; [8]) | PD-L1/CD81 values (exosomal PD-L1 [6]; [9]) | PD-L1/CD81 values (exosomal PD-L1 [6]; [10]) | reductions in Exo-PD-L1 compared to pre-treatment levels (exosomal PD-L1 [6]; preliminary studies, serum from 4 patients treated with NUC-7738) [%] |
| --- | --- | --- | --- | --- | --- | --- | --- | --- | --- | --- | --- | --- | --- | --- |
| Nc1ncnc2c1ncn2[C@@H]1O[C@H](CO)C[C@H]1O [3′-dA, 3′-deoxyadenosine] | quickly deaminated by adenosine deaminase (ADA), and rapidly metabolized to an inactive metabolite | – | – | – | – | – | – | – | – | – | – | – | – | – |
| C[C@H](NP(=O)(OC[C@@H]1CC(O)[C@H](n2cnc3c(N)ncnc32)O1)Oc1ccccc1)C(=O)OCc1ccccc1 (stereo partly drawn) [NUC-7738, 3′-deoxyadenosine-5′-O-[phenyl(benzyloxy-L-alaninyl)] phosphate] | – | up to 40% | up to 3 fold | 50 | 0.047 | ≤ 24 | 0.02 | 0.043 | 0.041 | 0.025 | 0.049 | 0.023 | 0.029 | ≤ 50 |
